From patent US20240207318A1, “CHIMERIC COSTIMULATORY RECEPTORS, CHEMOKINE RECEPTORS, AND THE USE OF SAME IN CELLULAR IMMUNOTHERAPIES” (Iovance Biotherapeutics, Inc., priority 2021, published 2024)
“Also recorded” adds a separate entry of the source.

B1: anti-PD-L1 antibody clone 19H9-IgG4-Flag (antibody)
chain: QVQLQESGGGLVKPGGSLRLSCAASGFTFSSYSMNWVRQAPGKGLEWVSGINTAGDTHYPESVKGRFTISRDNARNSLNLQMNSLRAEDTAVYYCVRERVEREYSGYDAFDIWGQGTTVTVSAGGGGSGGGGSGGGGSGAPNFMLTQPHSVSESLGKTVTISCTGSSGSIARKFVQWYQQRPGSSPTTVIYENNQRPSGVSDRFSGSIGSSSNSASLTISGLKTEDEADYYCQSYDSSNVVFGGGTKVTVL
B2: anti-PD-L1 antibody clone 38A1-IgG4-HA (antibody)
chain: EVQLVESGGGLVQPGGSLRLSCAASGFTFSNYAMSWVRQAPGKGLEWVSTISGSGGTTYYADSVKGRFTISRDNSKNTLYLQMNSLRVEDTAVYYCAKDWFRSSSPDAFDIWGQGTTVTVSAGGGGSGGGGSGGGGSGAPSYVLTQPPSVSVAPGQTARITCGGNNIGRKIVHWYQQRPGQAPVLVIYYDTDRPAGIPERFSGSNSGNMATLTISTVGAGDEADYYCQVWDTGSDHVVFGGGTKLTVL

Assays:
[1] = tested on: TILs; test: Expansion and viability of TILs treated with drug during ex vivo 22-day expansion; type: cell-based, human; settings: ipatasertib 0.3 or 1 μM, pre-REP and REP or REP only, relative to controls
Method: Patient tumors from different indications were received, fragmented, and subjected to an expansion protocol for TIL manufacturing. Different doses (0.3 μM and 1 μM) of the pan-AKT inhibitor ipatasertib were added to the culture during ex vivo expansion. The expansion potential, as well as the phenotypic and functional characteristics were evaluated on the final TIL product. Eight tumors, including tumors from melanoma, NSCLC, head and neck cancer, ovarian cancer, and breast cancer, were used in combination with the Gen 2 process.
Expansion, viability and T cell distribution in control and AKT inhibitor-treated TILs are shown. TILs were left untreated or treated with increasing concentrations of the pan-AKT inhibitor ipatasertib. Treatment was added either during the pre-REP and REP (blue bars) or during the REP stage only (purple bars). Fold expansion and viability of TIL at the end of the 22-day expansion process are shown. Frequency of CD8^+, CD4^+ and CD4^+ (Foxp3^+) cells after the expansion process on cryopreserved cells are also shown.
In this example, the use of decitabine, a DNA hypomethylation agent, in culture as an epigenetic modifier of TIL products was explored. […] Patient tumors (N=8) from different tumor types (non-small cell lung, head and neck, ovarian, and breast cancers) were obtained from donors, fragmented, and subjected to a 22-day expansion protocol for TIL generation. Different doses (10 nM, 30 nM, and 100 nM) of decitabine were added to the culture during ex vivo expansion either during the pre-REP and REP stages or during REP only. The expansion potential as well as the phenotypic and functional characteristics of TILs were evaluated in the final TIL product.
TILs were left untreated (CTRL, gray bars) or treated with increasing concentrations of decitabine. Treatment was added either during the REP stage only (blue bars) or during both pre-REP and REP (green bars).

[2] = tested on: TILs; test: Flow cytometry phenotype of drug-treated TILs (T-cell subsets, surface markers, transcription factors); type: cell-based, human
[3] = tested on: TILs; test: Cytokine expression of drug-treated TILs after overnight anti-CD3/CD28 bead stimulation; type: cell-based, human
[4] = target: T1, PD-L1 (human, UniProt Q9NZQ7 19-290, limits assumed); test: characterization of the anti-PD-L1 antibody clone; EC50 assay method not given
T1 construct: also called hPD-L1; CD274
T1 sequence (Q9NZQ7 19-290 limits assumed): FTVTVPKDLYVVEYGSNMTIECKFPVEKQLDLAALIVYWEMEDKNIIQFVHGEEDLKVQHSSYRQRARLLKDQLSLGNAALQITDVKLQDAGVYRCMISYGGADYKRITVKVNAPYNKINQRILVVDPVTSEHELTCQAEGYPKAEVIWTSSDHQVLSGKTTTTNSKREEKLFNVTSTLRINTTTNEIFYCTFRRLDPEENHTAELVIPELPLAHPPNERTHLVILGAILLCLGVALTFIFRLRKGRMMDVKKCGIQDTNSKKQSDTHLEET

[5] = AKT inhibition during expansion

| EC50 [4] [nM] | Molecule | TIL expansion (fold expansion) [1] | TIL viability [1] | TIL expansion (fold expansion) ([1]; listed as AKT inhibitor) | TIL viability ([1]; listed as AKT inhibitor) | IL-7R and CXCR3 expression on CD8+ TILs [2, 5] | frequency of CD8+ TEMRA cells [2, 5] | population of less differentiated CD39-CD69- cells ([2]; AKT inhibitor during expansion, relative to controls) | TOX expression following stimulation ([2]; AKT inhibitor-treated TILs) | expression of CD38 and transcription factors T-bet and TOX ([2]; CD39-CD69- cells, AKT inhibitor 1 μM) | T cell ratios (CD8+, CD4+, CD4+ Foxp3+) ([2]; ipatasertib-treated TILs after expansion) | cytokine output following stimulation ([3]; 1 μM ipatasertib at pre-REP and REP, anti-CD3/CD28 beads 1:5 overnight) | frequency of IFNγ+ TNFα+ CD8+ T cells ([3]; AKT inhibitor treatment) |
| --- | --- | --- | --- | --- | --- | --- | --- | --- | --- | --- | --- | --- | --- |
| – | CC(C)NC[C@@H](C(=O)N1CCN(c2ncnc3c2[C@H](C)C[C@H]3O)CC1)c1ccc(Cl)cc1 [ipatasertib] | maintains | maintains | equivalent | equivalent | increase | increase | increases; also recorded: doubled | lower TOX expression | reduced expression | without affecting T cell ratios | higher cytokine output | increase |
| 0.125 | B1 | – | – | – | – | – | – | – | – | – | – | – | – |
| 0.404 | B2 | – | – | – | – | – | – | – | – | – | – | – | – |
